{
  "source": "paper PMC6508865",
  "about": "“Dynamics of thymol dietary supplementation in quail (Coturnix japonica): Linking bioavailability, effects on egg yolk total fatty acids and performance traits” (PLoS ONE, 2019)",
  "key": {"[1]": {"test_system": "female Japanese quail (Coturnix japonica)", "assay": "General welfare quality assessment", "assay_type": "in vivo", "details": "2, 4, 6.25 g of THY/kg feed", "description": "A welfare assessment based on observations of physical characteristics was made. Female skin lesions and plumage status were evaluated following a procedure proposed by Pellegrini et al. that is an adapted version of the protocol developed by the Welfare Quality consortium. Briefly, skin lesions, which include wounds that have not healed in the legs, rear end, chest, cloacae and wings were determined using a score scale from 0 to 2, where \"0\" represents no lesions or scratches, \"1\" represents at least one lesion < 0.5 cm diameter or less than 3 pecks (punctiform damage ~ 0.1 cm of diameter) or scratches, and \"2\" reflects one lesion ≥ 0.5 cm of diameter or more than 3 pecks or scratches. Plumage damage was also determined using a score scale from 0 to 2 as follows: \"0\" represents individuals with no plumage damage or slight wear (only single feathers lacking), \"1\" represent individuals with one or more body parts that have moderate wear (i.e. damaged feathers worn or deformed) or one or more featherless areas < 1.5 cm in diameter at the larger extent and \"2\" corresponded to individuals that have at least one featherless area > 1.5 cm in diameter at the largest extent. […]"}, "[2]": {"test_system": "quail", "parameters": "method as in PMID 28474397", "details": "THY6, 6.25 g of THY per kg of feed; cited from earlier work"}, "[3]": {"parameters": "method as in ref 14 = [14]; 14 Botsoglou N , Yannakopoulos AL , Fletouris DJ , Tserveni-Goussi AS , Fortomaris PD . Effect of dietary thyme on oxidative stability of egg yolk . J Agric Food Chem . 1997; 45 ( 10 ): 3711 – 6 .", "details": "cited from earlier work"}, "[4]": {"test_system": "female quail", "parameters": "method as in ref 41 = [41]; 41 Labaque MC , Kembro JM , Luna A , Marin RH . Effects of thymol feed supplementation on female Japanese quail ( Coturnix coturnix ) behavioral fear response . Anim Feed Sci Technol . 2013; 183 ( 1–)", "details": "THY2, 2 g of THY per kg of feed; cited from earlier work"}},
  "data": [
    {"compound": "Cc1ccc(C(C)C)c(O)c1", "note": "[THY, 2 isopropyl-5-methylphenol]", "values": [
      {"measurement": "effect on general well-being", "setting": "[1]", "result": "did not affect"},
      {"measurement": "PUFA and SFA in yolk total fatty acids and triglycerides of the quail fertile egg", "setting": "[2]", "result": "enhances PUFA deposition to the detriment of SFA"},
      {"measurement": "concentration of THY needed to be added to a control yolk for antioxidant activity equivalent to a yolk from a thyme treated hen", "setting": "[3]", "result": "278 ug of THY/g of yolk"},
      {"measurement": "bird's locomotor activity", "setting": "[4]", "result": "without affecting"},
      {"measurement": "female quail fear responses when exposed to stressful situations", "setting": "[4]", "result": "reduces female quail fear responses"}
    ]}
  ]
}
